Results from patent US9862749B2, “Analogue peptide CMA3 derived from CM-MA peptide and use thereof” (Industry-Academic Cooperation Foundation, Chosun University, priority 2014, dated 2018).
≈ marks a conversion by molar mass, not a printed value. Peptide text beside a SMILES is read from it.

Legend:
Assay type in all cases: cell-based
[1] = system: Pseudomonas aeruginosa; settings: 12 h
Description: (§1) To compare the antibacterial activities among those peptides prepared by the method of Example 1 of the invention, the inventors measured MIC (minimal inhibitory concentration) of the peptide which is the minimum concentration for staying without being broken.
(§2) Particularly, the strains listed in Table 2 were purchased and cultured in each medium composed as instructed until the mid-log phase. The cells were diluted at the density of 5×10^5 cells/100 μl, which were then inoculated in a micro-titrate plate (Nunc, USA). Then, the CMA1, CMA2, CMA3, CMA4, CMA5, or CMA6 peptide synthesized in Example 1 was ½ fold diluted in each 96 well plate, and then added to the plate, followed by culture at 37° C. for 12 hours. OD620 was measured with a micro-titrate plate reader (Merck Elisa reader, Germany) to determine MIC for each strain. As for the control, the mother peptide CM-MA was treated by the same manner as described above and MIC was also determined.

[2] = system: Staphylococcus epidermidis; settings: 12 h
Description: as §1, §2

[3] = system: Salmonella typhimurium; settings: 12 h
Description: as §1, §2

[4] = system: Staphylococcus aureus; settings: 12 h
Description: as §1, §2

[5] = system: Listeria monocytogenes; settings: 12 h
Description: as §1, §2

[6] = system: Escherichia coli; settings: 12 h
Description: as §1, §2

[7] = in vitro; settings: human, HaCaT cells (human keratinocyte cell line)
Description: To investigate the cytotoxicity of each peptide prepared by the method of Example 1 to human keratinocyte cell line (HaCaT cell line, Dr. N E. Fusenig, Heidelberg, Germany) was measured.
Particularly, the HaCaT cell line cultured in DMEM supplemented with 10% FBS (Fetal Bovine Serum) was distributed in a 96-well plate at the density of 3×10^3 cells/well, followed by culture for 24 hours. The CM-MA, CMA1, CMA2, CMA3, CMA4, CMA5, or CMA6 peptide prepared in Example 1 was treated to each well at the concentration of 12.5, 25.0, 50.0, 100.0, or 200.0 μM/well, followed by reaction in a 5% CO2 incubator for 24 hours. Upon completion of the culture, 20 ul of the reaction solution containing 5 mg/ml MTT (Thiazolyl Blue Tetrazolium Bromide) dissolved in PBS (phosphate buffered saline) was added to each well, followed by reaction for 4 hours. Then, the supernatant was eliminated.

Structure (SMILES)	Minimal inhibitory concentration [1]	Minimal inhibitory concentration [2]	Minimal inhibitory concentration [3]	Minimal inhibitory concentration [4]	Minimal inhibitory concentration [5]	Minimal inhibitory concentration [6]	viability at 24 h, 200 µM [7]
CC[C@H](C)[C@H](NC(=O)CNC(=O)[C@@H](NC(=O)[C@H](CCCCN)NC(=O)[C@H](CCCCN)NC(=O)[C@H](CC(C)C)NC(=O)[C@H](Cc1c[nH]cn1)NC(=O)[C@H](CCCCN)NC(=O)[C@H](Cc1c[nH]c2ccccc12)NC(=O)[C@@H](N)CCCCN)[C@@H](C)CC)C(=O)NCC(=O)N[C@@H](CCCCN)C(=O)N[C@@H](Cc1c[nH]cn1)C(=O)N[C@@H](Cc1ccccc1)C(=O)N[C@@H](CC(C)C)C(=O)N[C@@H](CO)C(=O)N[C@@H](C)C(=O)N[C@@H](CCCCN)C(=O)N[C@@H](CCCCN)C(=O)N[C@@H](Cc1ccccc1)C(N)=O [CMA5] (H-KWKHLKKIGIGKHFLSAKKF-NH2)	16 µM (≈ 38.3 µg/mL)	64 µM (≈ 153 µg/mL)	1 µM (≈ 2.39 µg/mL)	32 µM (≈ 76.6 µg/mL)	2 µM (≈ 4.79 µg/mL)	8 µM (≈ 19.2 µg/mL)	78.9%
CC[C@H](C)[C@H](NC(=O)CNC(=O)[C@@H](NC(=O)[C@H](CCCCN)NC(=O)[C@H](CCCCN)NC(=O)[C@H](Cc1ccccc1)NC(=O)[C@H](CC(C)C)NC(=O)[C@H](CCCCN)NC(=O)[C@H](Cc1c[nH]c2ccccc12)NC(=O)[C@@H](N)CCCCN)[C@@H](C)CC)C(=O)NCC(=O)N[C@@H](CCCCN)C(=O)N[C@@H](Cc1ccccc1)C(=O)N[C@@H](CC(C)C)C(=O)N[C@@H](CCC(N)=O)C(=O)N[C@@H](CO)C(=O)N[C@@H](C)C(=O)N[C@@H](CCCCN)C(=O)N[C@@H](CCCCN)C(=O)N[C@@H](Cc1ccccc1)C(N)=O [CMA6] (H-KWKLFKKIGIGKFLQSAKKF-NH2; N-terminus assumed)	4 µM (≈ 9.58 µg/mL)	8 µM (≈ 19.2 µg/mL)	1 µM (≈ 2.4 µg/mL)	16 µM (≈ 38.3 µg/mL)	1 µM (≈ 2.4 µg/mL)	4 µM (≈ 9.58 µg/mL)	–
CC[C@H](C)[C@H](NC(=O)CNC(=O)[C@@H](NC(=O)[C@H](CCCCN)NC(=O)[C@H](CCCCN)NC(=O)[C@H](CC(C)C)NC(=O)[C@H](Cc1c[nH]cn1)NC(=O)[C@H](CCCCN)NC(=O)[C@H](Cc1c[nH]c2ccccc12)NC(=O)[C@@H](N)CCCCN)[C@@H](C)CC)C(=O)NCC(=O)N[C@@H](CCCCN)C(=O)N[C@@H](Cc1ccccc1)C(=O)N[C@@H](CC(C)C)C(=O)N[C@@H](CO)C(=O)N[C@@H](C)C(=O)N[C@@H](Cc1c[nH]cn1)C(=O)N[C@@H](CCCCN)C(=O)N[C@@H](CCCCN)C(=O)N[C@@H](Cc1ccccc1)C(N)=O [CMA4] (H-KWKHLKKIGIGKFLSAHKKF-NH2)	16 µM (≈ 38.3 µg/mL)	32 µM (≈ 76.6 µg/mL)	1 µM (≈ 2.39 µg/mL)	32 µM (≈ 76.6 µg/mL)	2 µM (≈ 4.79 µg/mL)	4 µM (≈ 9.58 µg/mL)	64.5%
CC[C@H](C)[C@H](NC(=O)CNC(=O)[C@@H](NC(=O)[C@H](CCCCN)NC(=O)[C@H](CCCCN)NC(=O)[C@H](Cc1ccccc1)NC(=O)[C@H](CC(C)C)NC(=O)[C@H](CCCCN)NC(=O)[C@H](Cc1c[nH]c2ccccc12)NC(=O)[C@@H](N)CCCCN)[C@@H](C)CC)C(=O)NCC(=O)N[C@@H](CCCCN)C(=O)N[C@@H](Cc1ccccc1)C(=O)N[C@@H](CC(C)C)C(=O)N[C@@H](Cc1c[nH]cn1)C(=O)N[C@@H](CO)C(=O)N[C@@H](C)C(=O)N[C@@H](CCCCN)C(=O)N[C@@H](CCCCN)C(=O)N[C@@H](Cc1ccccc1)C(N)=O [CA-MA, reference compound] (H-KWKLFKKIGIGKFLHSAKKF-NH2)	1 µM (≈ 2.4 µg/mL)	8 µM (≈ 19.2 µg/mL)	1 µM (≈ 2.4 µg/mL)	8 µM (≈ 19.2 µg/mL)	0.5 µM (≈ 1.2 µg/mL)	2 µM (≈ 4.81 µg/mL)	1.4%
CC[C@H](C)[C@H](NC(=O)CNC(=O)[C@@H](NC(=O)[C@H](Cc1c[nH]cn1)NC(=O)[C@H](CCCCN)NC(=O)[C@H](CCCCN)NC(=O)[C@H](CC(C)C)NC(=O)[C@H](CCCCN)NC(=O)[C@H](Cc1c[nH]c2ccccc12)NC(=O)[C@@H](N)CCCCN)[C@@H](C)CC)C(=O)NCC(=O)N[C@@H](CCCCN)C(=O)N[C@@H](Cc1c[nH]cn1)C(=O)N[C@@H](Cc1ccccc1)C(=O)N[C@@H](CC(C)C)C(=O)N[C@@H](CO)C(=O)N[C@@H](C)C(=O)N[C@@H](CCCCN)C(=O)N[C@@H](CCCCN)C(=O)N[C@@H](Cc1ccccc1)C(N)=O [CMA3] (H-KWKLKKHIGIGKHFLSAKKF-NH2; N-terminus assumed)	8 µM (≈ 19.2 µg/mL)	64 µM (≈ 153 µg/mL)	1 µM (≈ 2.39 µg/mL)	32 µM (≈ 76.6 µg/mL)	2 µM (≈ 4.79 µg/mL)	4 µM (≈ 9.58 µg/mL)	92.4%
CC[C@H](C)[C@H](NC(=O)CNC(=O)[C@@H](NC(=O)[C@H](CCCCN)NC(=O)[C@H](CCCCN)NC(=O)[C@H](Cc1ccccc1)NC(=O)[C@H](CC(C)C)NC(=O)[C@H](CCCCN)NC(=O)[C@H](Cc1c[nH]c2ccccc12)NC(=O)[C@@H](N)CCCCN)[C@@H](C)CC)C(=O)NCC(=O)N[C@@H](CCCCN)C(=O)N[C@@H](Cc1ccccc1)C(=O)N[C@@H](CC(C)C)C(=O)N[C@@H](CO)C(=O)N[C@@H](C)C(=O)N[C@@H](Cc1c[nH]cn1)C(=O)N[C@@H](CCCCN)C(=O)N[C@@H](CCCCN)C(=O)N[C@@H](Cc1ccccc1)C(N)=O [CMA2] (H-KWKLFKKIGIGKFLSAHKKF-NH2)	4 µM (≈ 9.62 µg/mL)	16 µM (≈ 38.5 µg/mL)	1 µM (≈ 2.4 µg/mL)	32 µM (≈ 76.9 µg/mL)	1 µM (≈ 2.4 µg/mL)	2 µM (≈ 4.81 µg/mL)	–
CC[C@H](C)[C@H](NC(=O)CNC(=O)[C@@H](NC(=O)[C@H](CCCCN)NC(=O)[C@H](CCCCN)NC(=O)[C@H](Cc1ccccc1)NC(=O)[C@H](CC(C)C)NC(=O)[C@H](CCCCN)NC(=O)[C@H](Cc1c[nH]c2ccccc12)NC(=O)[C@@H](N)CCCCN)[C@@H](C)CC)C(=O)NCC(=O)N[C@@H](CCCCN)C(=O)N[C@@H](Cc1c[nH]cn1)C(=O)N[C@@H](Cc1ccccc1)C(=O)N[C@@H](CC(C)C)C(=O)N[C@@H](CO)C(=O)N[C@@H](C)C(=O)N[C@@H](CCCCN)C(=O)N[C@@H](CCCCN)C(=O)N[C@@H](Cc1ccccc1)C(N)=O [CMA1] (H-KWKLFKKIGIGKHFLSAKKF-NH2)	8 µM (≈ 19.2 µg/mL)	32 µM (≈ 76.9 µg/mL)	1 µM (≈ 2.4 µg/mL)	16 µM (≈ 38.5 µg/mL)	4 µM (≈ 9.62 µg/mL)	8 µM (≈ 19.2 µg/mL)	51.1%
